Columns and labels:
[1] = tested on: Pseudomonas aeruginosa ATCC 10146; assay: Antibacterial activity of rCIP and KI against P. aeruginosa (Malthus, 2^3 factorial design); type: cell-based; conditions: components present at rCIP 0.5 POXU/ml, H2O2 0.5 mM, KI 0.5 mM; 15 min, 40 C, pH 6.0; approx 10^7 cfu/ml; untreated 1.7*10^7
Protocol: (§1) The antibacterial activity of rCIP was tested in phosphate buffer (pH 6.0) against Pseudomonas aeruginosa ATCC 10146 and Staphylococcus aureus ATCC 25923 with potassium iodide as electron donor, and hydrogen peroxide was added as electron acceptor. The cells (approximately 10^7 cfu/ml) were incubated with enzyme for 15 min at 40?C., and the experiment was carried out using a 2^3 factorial design reproduced two times. The bactericidal activity was determined by incubation in Malthus.

[2] = tested on: Staphylococcus aureus ATCC 25923; assay: Antibacterial activity of rCIP and KI against S. aureus (Malthus, 2^3 factorial design); type: cell-based; conditions: components present at rCIP 0.5 POXU/ml, H2O2 0.5 mM, KI 0.5 mM; 15 min, 40 C, pH 6.0; untreated 2.9*10^8
Protocol: as §1

[3] = tested on: P. fluorescens; conditions: rCIP 3 POXU/ml, enhancing agent 5 mM, 15 min, pH 6.0, 40 C; for bactericidal activity of rCIP with the enhancing agent: glucose oxidase/glucose or 5 mM H2O2, 10^4 cfu/ml
Protocol: In order to avoid interference with substrate components, the experiment was carried out in a buffer instead of in a growth substrate.
The bactericidal activity was determined by plate counting and by incubation in Malthus. The detection times measured by the Malthus instrument were converted to cfu/ml by a standard curve.
Indirect Malthus measurements were used when enumerating total survival cells (Malthus Flexi M2060, Malthus Instrument Limited). 3 ml of growth medium was transferred to the outer chamber of the indirect Malthus cells, and 0.5 ml of sterile KOH (0.1 M) was transferred to the inner chamber. The cell suspensions were after enzyme treatment transferred to the outer chamber of the Malthus cell. As cells are growing in the outer chamber they produce CO2 which will dissolve in the KOH in the inner chamber and thereby change the conductance of the KOH. The amount of CO2 formed by the respiring cells surviving the enzyme treatment was used for estimating the number of viable cells. When the conductance change is measurable by the Malthus, a detection time (dt) will be recorded. The dt's were converted to colony counts by use of a calibration curve relating cfu/ml to dt (FIG. 1).

Row | Molecule | survivors [1] | survivors [2] | bactericidal activity ([3]; H2O2 source, by plate counts and Malthus) | bactericidal activity of rCIP with the enhancing agent [3]
1 | OO [H2O2, hydrogen peroxide] | 1.2*10^7 cfu/ml | 1.3*10^8 cfu/ml | – | –
2 | [I-].[K+] [KI, potassium iodide] | 2.1*10^7 cfu/ml | 2.0*10^8 cfu/ml | 100% | statistical significant bactericidal activity
3 | N#C[S-].[Na+] [NaSCN, sodium thiocyanate] | – | – | – | statistical significant bactericidal activity
4 | O=C(O)CCN1c2ccccc2Sc2ccccc21 [PPT, 10-phenothiazine propionic acid] | – | – | – | slight bactericidal activity
5 | rCIP: Coprinus cinereus, IFO 8371, recombinant peroxidase (rCIP) available from Novo Nordisk A/S (protein, UniProt P28314 21-363, looked up) Peroxidase: QGPGGGGSVTCPGGQSTSNSQCCVWFDVLDDLQTNFYQGSKCESPVRKILRIVFHDAIGFSPALTAAGQFGGGGADGSIIAHSNIELAFPANGGLTDTVEALRAVGINHGVSFGDLIQFATAVGMSNCPGSPRLEFLTGRSNSSQPSPPSLIPGPGNTVTAILDRMGDAGFSPDEVVDLLAAHSLASQEGLNSAIFRSPLDSTPQVFDTQFYIETLLKGTTQPGPSLGFAEELSPFPGEFRMRSDALLARDSRTACRWQSMTSSNEVMGQRYRAAMAKMSVLGFDRNALTDCSDVIPSAVSNNAAPVIPGGLTVDDIEVSCPSEPFPEIATASGPLPSLAPAP | 2.6*10^7 cfu/ml | 1.6*10^8 cfu/ml | – | –
